Like-named read-outs stand apart in the source and are kept apart here.
Legend:
[1] = molecular target: T1, GAL4-PPARγ chimera (ligand-binding domain of the murine PPARγ) (Mus musculus, UniProt P37238); assay: Transient cotransfection assay: SPAP reporter; format: cell-based; conditions: for fold induction at 10 µM: read-out: Fold Activation
T1 construct: transient in CV-1 cells with UAS-tk-SPAP reporter
T1 sequence (P37238 204-505): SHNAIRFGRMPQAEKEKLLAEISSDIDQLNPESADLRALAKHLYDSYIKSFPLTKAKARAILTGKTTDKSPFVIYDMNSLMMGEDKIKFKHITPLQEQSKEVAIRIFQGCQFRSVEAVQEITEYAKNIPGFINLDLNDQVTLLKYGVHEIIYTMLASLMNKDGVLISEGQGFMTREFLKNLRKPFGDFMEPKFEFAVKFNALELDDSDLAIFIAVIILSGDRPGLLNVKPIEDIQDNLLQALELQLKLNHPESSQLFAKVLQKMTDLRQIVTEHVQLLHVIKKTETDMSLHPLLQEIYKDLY
From the text: A transient cotransfection assay was used to screen for activators of PPARγ. As mammalian cell lines contain endogenous nuclear receptors that can complicate interpretation of the results, we used an established chimera system in which the ligand-binding domain of the murine PPARγ was fused to the DNA binding domain of the yeast transcription factor GAL4. The GAL4-PPARγ chimera was cotransfected into CV-1 cells with a reporter construct containing five copies of the GAL4 binding site upstream of the thymidine kinase promoter driving secreted placental alkaline phosphatase (SPAP) as reporter.
GAL4-PPAR chimeras and UAS-tk-CAT/SPAP reporters.
CV-1 cells were plated in DME medium supplemented with 10% delipidated fetal calf serum at a density of 2.4×10^4 cells per well in a 96-well plate (Costar) 16-24 h before transfection. In general, 8.0 ng of reporter plasmid, 25.0 ng of β-galactosidase expression vector (pCH110, Pharamacia), and 2.0 ng of GAL4-PPARγ expression vector were mixed with carrier DNA (pBluescript, Stratagene) to a total of 80 ng of DNA per well in a volume of 10 μl optiME medium (GIBCO BRL). To this, a second mix, containing 9.3 μl optiME medium and 0.7 μl of LIPOFECTAMINE™ (GIBCO BRL), was added. After 30 min. an additional 80 μl of optiME medium were added and the combined mix was then applied to the cells.

GST-PPARγ LBD = molecular target: T2, GST-PPARγ LBD (Mus musculus, UniProt P37238); assay: Saturation binding of radiolabeled ligand to GST-PPARγ LBD; parameters: species or system murine; conditions: for non-specific binding: 500-fold excess of nontritiated compound
T2 construct: cDNA encoding amino acids 174 to 475 of PPARg1; made in house; host or cells: E. coli BL21 (DE3)plysS, crude bacterial extract
T2 sequence (P37238 174-475 isoform P37238-2): T1 sequence (P37238 204-505)
Procedure: (§1) To test for direct interactions between thiazolidinediones and PPARγ,the ligand binding domain of PPARγ was expressed in E. Coli as a fusion protein with glutathionine-S-transferase (GST-PPARγ LBD).
Bound was separated from free radioactivity by elution through 1 ml Sephadex G-25 desalting columns (Boehringer Mannheim). Bound radioactivity eluted in the column void volume and was quantitated by liquid scintillation counting.

[2] = test system: glutathione-S-transferase; assay: Binding control in extracts from bacteria expressing glutathione-S-transferase; conditions: extracts from bacteria expressing glutathione-S-transferase alone
From the text: as §1

pre-adipocyte cell lines = conditions: cited from earlier work
[3] = test system: enhancer/promoter of the lipid-binding protein aP2; conditions: Harris and Kletzien, 1994; cited from earlier work
[4] = CV-1 cells, SPAP reporter, test compound at 10^-5 M, 24 h

Row | SMILES | fold induction at 10 µM [1, 4] | other results
1 | CC1(C)CCC(C)(C)c2cc3ncc(-c4ccccc4C(=O)O)cc3cc21 [2-(6,6,9,9-tetramethyl-6,7,8,9-tterahydro-benzo[g]quinolin-3-yl)-benzoic acid] | 25.9 | 
2 | CCCCc1nc(Cl)c(C(=O)NCC(=O)OCC)n1Cc1ccc2oc(-c3ccccc3C(=O)O)c(Br)c2c1 [2-[3-Bromo-5-(2-butyl-4-chloro-5-ethoxycarbonylmethylcarbamoyl-imidazol-1-ylmethyl)-benzofuran-2-yl]-benzoic acid] | 23.9 | 
3 | O=C1NC(=O)C(Cc2ccc3c(c2)CCC(Cc2ccccc2)O3)S1 (stereo not drawn) [5-(2-Benzyl-chroman-6-ylmethyl)-thiazolidine-2,4-dione] | 18.2 | 
4 | CC1(COc2ccc(CC3SC(=O)NC3=O)cc2)CCCCC1 (stereo not drawn) [5-[4-(1-methyl-cyclohexylmethoxy)-benzyl)-thiazolidine-2,4-dione] | 46.1 | 
5 | CCCCCC(O)C=CC1C(O)CC2CC(=CCCCC(=O)O)CC21 (stereo not drawn) [5-[5-Hydroxy-4-(3-hydroxy-oct-1-enyl)-hexahydro-pentalen-2-ylidene]-pentanoic acid] |  | fold induction at 10 µM ([1]; CV-1, 24 h): 19.6
6 | CN(CCOc1ccc(CC2SC(=O)NC2=O)cc1)c1ccccn1 (stereo not drawn) [5-{4-[2-(Methyl-pyridine-2-yl-amino)-ethoxy]-benzyl}-thiazolidine-2,4-dione] |  | Specific binding (GST-PPARγ LBD; at 100 nM tritiated ligand): 13,500 dpm; non-specific binding (GST-PPARγ LBD; at 100 nM tritiated ligand): 1,700 dpm; Specific binding (GST-PPARγ LBD; at 200 nM tritiated ligand): 14,500 dpm; non-specific binding (GST-PPARγ LBD; at 200 nM tritiated ligand): 1,900 dpm; Binding [2]: No binding was detected
7 | CCCCCC(=O)C=CC1C(O)CC(=O)C1CCCCCCC(=O)O (stereo not drawn) [7-[43-Hydroxy-5-oxo-2-(3-oxo-oct-1-enyl)-cyclopentyl]-heptanoic acid] |  | Fold Activation ([1]; CV-1 cells, SPAP reporter, test compound at 10^-5 M, 24 h, 10 µM): 25.6
8 | CCc1ccc(CCOc2ccc(CC3SC(=O)NC3=O)cc2)nc1 (stereo not drawn) [pioglitazone] |  | Expression of adipocyte-specific genes aP2 and adipsin and glucose transporter proteins GLUT-1 and GLUT-4 (pre-adipocyte cell lines): increased expression; Expression of chimeric aP2 enhancer/promoter CAT reporter gene [3]: stimulate expression

Further lines, with some results ahead:

Row | fold induction at 10 µM [1, 4] | SMILES | other results
9 | 23.8 | CCCCCC(O)C=CC1C(=O)CC(O)C1CC=CCCCC(=O)O (stereo not drawn) [7-[5-Hydroxy-2-(3-hydroxy-oct-1-enyl)-3-oxo-cyclopentyl]-hept-5-enoic acid] | 
10 | 27 | CCCCCC(C)c1ccc(C2=CCCC2CCCCCCC(=O)O)cc1 (stereo not drawn) [7-{2-[4-(1-Methyl-hexyl)-phenyl]-cyclopent-2-enyl}-heptanoic acid] | 
11 | 24.6 | O=C(O)CCCCCCC1=C(c2ccc(C(O)C3CCCC3)cc2)CCC1=O (stereo not drawn) [7-{2-[4-(Cyclopentyl-hydroxy-methyl)-phenyl]-5-oxo-cyclopent-1-enyl}-heptanoic acid] | 
12 | 11.3 | CC(C)Oc1cc(CCCCC(=O)O)c(C=CC(=O)CCCCCC(=O)O)c(OC(C)C)c1 [9-[2-(4-Carboxy-butyl)-4,6-diisopropoxy-phenyl]-7-oxo-non-8-enoic acid] | 
13 | 21.7 | CCCc1c(-c2ccccc2)[nH]c2ccc(CC(=O)O)cc12 [(2-Phenyl-3-propyl-1H-indol-5-yl)-acetic acid] | 
14 | 21.2 | O=C(O)Cc1ccc2[nH]c(-c3ccccc3)c(CCc3ccccc3)c2c1 [(3-phenethyl-2-phenyl-1H-indol-5-yl)-acetic acid] | 
15 | 17.8 | CN(C)c1ccc(Cc2ccc(N(C)C)cc2CC(=O)O)cc1 [[5-Dimethylamino-2-(4-dimethylamino-benzyl)-phenyl]-acetic acid] | 
16 | 25.7 | Cc1cccc(Nc2cc(Cl)nc(SCC(=O)O)n2)c1C [{4-Chloro-6-(2,3-dimethyl-phenylamino)-pyrimidin-2-ylsulfanyl}-acetic acid] | 

From patent publication US5902726A, “Activators of the nuclear orphan receptor peroxisome proliferator-activated receptor gamma” (priority 1998, dated 1999)
